Experiments:
IGF1R = target: T1, IGF1R (Homo sapiens, UniProt P08069); test: Selectivity panel IGF1R; format: biochemical; settings: 5 µM inhibitor
T1 construct: purchased Life Technologies (Invitrogen SelectScreen); Dyrk1A, Dyrk2 and CK2α in-house or gifts

PRKCZ (PKC zeta) = target: T2, PRKCZ (PKC zeta) (Homo sapiens, UniProt Q05513); test: Selectivity panel PRKCZ; format: biochemical; settings: 5 µM inhibitor
T2 construct: purchased Life Technologies (Invitrogen SelectScreen); Dyrk1A, Dyrk2 and CK2α in-house or gifts

PHKG2 = target: T3, PHKG2 (Homo sapiens, UniProt P15735); test: Selectivity panel PHKG2; format: biochemical; settings: 5 µM inhibitor
T3 construct: purchased Life Technologies (Invitrogen SelectScreen); Dyrk1A, Dyrk2 and CK2α in-house or gifts

EPHB3 = target: T4, EPHB3 (Homo sapiens, UniProt P54753); test: Selectivity panel EPHB3; format: biochemical; settings: 5 µM inhibitor
T4 construct: purchased Life Technologies (Invitrogen SelectScreen); Dyrk1A, Dyrk2 and CK2α in-house or gifts

TAOK2 (TAO1) = target: T5, TAOK2 (TAO1) (Homo sapiens, UniProt Q9UL54); test: Selectivity panel TAOK2; format: biochemical; settings: 5 µM inhibitor
T5 construct: purchased Life Technologies (Invitrogen SelectScreen); Dyrk1A, Dyrk2 and CK2α in-house or gifts

MARK1 (MARK) = target: T6, MARK1 (MARK) (Homo sapiens, UniProt Q9P0L2); test: Selectivity panel MARK1; format: biochemical; settings: 5 µM inhibitor
T6 construct: purchased Life Technologies (Invitrogen SelectScreen); Dyrk1A, Dyrk2 and CK2α in-house or gifts

ACVR1 (ALK2) = target: T7, ACVR1 (ALK2) (Homo sapiens, UniProt Q04771); test: Selectivity panel ACVR1; format: biochemical; settings: 5 µM inhibitor
T7 construct: purchased Life Technologies (Invitrogen SelectScreen); Dyrk1A, Dyrk2 and CK2α in-house or gifts

AXL = target: T8, AXL (Homo sapiens, UniProt P30530); test: Selectivity panel AXL; format: biochemical; settings: 5 µM inhibitor
T8 construct: purchased Life Technologies (Invitrogen SelectScreen); Dyrk1A, Dyrk2 and CK2α in-house or gifts

MAPK12 (p38 gamma, ERK3) = target: T9, MAPK12 (p38 gamma, ERK3) (Homo sapiens, UniProt P53778); test: Selectivity panel MAPK12; format: biochemical; settings: 5 µM inhibitor
T9 construct: purchased Life Technologies (Invitrogen SelectScreen); Dyrk1A, Dyrk2 and CK2α in-house or gifts

CHEK1 (CHK1) = target: T10, CHEK1 (CHK1) (Homo sapiens, UniProt O14757); test: Selectivity panel CHEK1; format: biochemical; settings: 5 µM inhibitor
T10 construct: purchased Life Technologies (Invitrogen SelectScreen); Dyrk1A, Dyrk2 and CK2α in-house or gifts

ROCK2 = target: T11, ROCK2 (Homo sapiens, UniProt O75116); test: Selectivity panel ROCK2; format: biochemical; settings: 5 µM inhibitor
T11 construct: purchased Life Technologies (Invitrogen SelectScreen); Dyrk1A, Dyrk2 and CK2α in-house or gifts

AURKA (Aurora A) = target: T12, AURKA (Aurora A) (Homo sapiens, UniProt O14965); test: Selectivity panel AURKA; format: biochemical; settings: 5 µM inhibitor
T12 construct: purchased Life Technologies (Invitrogen SelectScreen); Dyrk1A, Dyrk2 and CK2α in-house or gifts

MAPK1 (ERK2) = target: T13, MAPK1 (ERK2) (Homo sapiens, UniProt P28482); test: Selectivity panel MAPK1; format: biochemical; settings: 5 µM inhibitor
T13 construct: purchased Life Technologies (Invitrogen SelectScreen); Dyrk1A, Dyrk2 and CK2α in-house or gifts

PRKD1 (PKC mu, PKD1) = target: T14, PRKD1 (PKC mu, PKD1) (Homo sapiens, UniProt Q15139); test: Selectivity panel PRKD1; format: biochemical; settings: 5 µM inhibitor
T14 construct: purchased Life Technologies (Invitrogen SelectScreen); Dyrk1A, Dyrk2 and CK2α in-house or gifts

PKN1 (PRK1) = target: T15, PKN1 (PRK1) (Homo sapiens, UniProt Q16512); test: Selectivity panel PKN1; format: biochemical; settings: 5 µM inhibitor
T15 construct: purchased Life Technologies (Invitrogen SelectScreen); Dyrk1A, Dyrk2 and CK2α in-house or gifts

PASK = target: T16, PASK (Homo sapiens, UniProt Q96RG2); test: Selectivity panel PASK (CAMK); format: biochemical; settings: 5 µM inhibitor; listed under CAMK
T16 construct: purchased Life Technologies (Invitrogen SelectScreen); Dyrk1A, Dyrk2 and CK2α in-house or gifts

[1] = test system: V79 hamster lung fibroblast cells; test: ViaLight Toxicity Assay; format: cell-based; settings: V79 cells, 5 µM, 48 hours
Protocol: V79 hamster lung fibroblast cells were plated at a density of 45,000 cells per well in a white 96 well plate and allowed to adhere and grow for 24 hours. The compounds were then applied as dilutions in cell culture medium (DMEM with 10% FCS and penicillin/streptomycin mix) at a final concentration of 5, 10, and 20 µM, respectively. The plate was further incubated for 48 hours at 37°C in a humidified atmosphere containing 5% CO2. The ATP level was detected with a LONZA ViaLight™ Plus Kit according to protocol 1 of the vendor's instructions. Luminescence was measured in a POLARstar plate reader (BMG Labtech, Offenburg, Germany). The background luminescence was obtained from equally treated, cell-free wells containing serum, and subtracted from all values. Inhibition values obtained for different compound concentrations were compared using the two-sided Student's t-test; levels of significance thus obtained are indicated by asterisks.

CDK2/cyclin A = target: T17, CDK2/cyclin A (Homo sapiens, UniProt P24941); test: Selectivity panel CDK2/cyclin A; format: biochemical; settings: 5 µM inhibitor
T17 construct: purchased Life Technologies (Invitrogen SelectScreen); Dyrk1A, Dyrk2 and CK2α in-house or gifts

RIPK2 = target: T18, RIPK2 (Homo sapiens, UniProt O43353); test: Selectivity panel RIPK2; format: biochemical; settings: 5 µM inhibitor
T18 construct: purchased Life Technologies (Invitrogen SelectScreen); Dyrk1A, Dyrk2 and CK2α in-house or gifts

MAPK8 (JNK1) = target: T19, MAPK8 (JNK1) (Homo sapiens, UniProt P45983); test: Selectivity panel MAPK8; format: biochemical; settings: 5 µM inhibitor
T19 construct: purchased Life Technologies (Invitrogen SelectScreen); Dyrk1A, Dyrk2 and CK2α in-house or gifts

DAPK3 (ZIPK) = target: T20, DAPK3 (ZIPK) (Homo sapiens, UniProt O43293); test: Selectivity panel DAPK3; format: biochemical; settings: 5 µM inhibitor
T20 construct: purchased Life Technologies (Invitrogen SelectScreen); Dyrk1A, Dyrk2 and CK2α in-house or gifts

IRAK4 = target: T21, IRAK4 (Homo sapiens, UniProt Q9NWZ3); test: Selectivity panel IRAK4; format: biochemical; settings: 5 µM inhibitor
T21 construct: purchased Life Technologies (Invitrogen SelectScreen); Dyrk1A, Dyrk2 and CK2α in-house or gifts

PIK3CA/PIK3R1 = target: T22, PIK3CA/PIK3R1 (Homo sapiens, UniProt P42336); test: Selectivity panel PIK3CA/PIK3R1; format: biochemical; settings: 5 µM inhibitor
T22 construct: purchased Life Technologies (Invitrogen SelectScreen); Dyrk1A, Dyrk2 and CK2α in-house or gifts

EPHA5 = target: T23, EPHA5 (Homo sapiens, UniProt P54756); test: Selectivity panel EPHA5; format: biochemical; settings: 5 µM inhibitor
T23 construct: purchased Life Technologies (Invitrogen SelectScreen); Dyrk1A, Dyrk2 and CK2α in-house or gifts

RET = target: T24, RET (Homo sapiens, UniProt P07949); test: Selectivity panel RET; format: biochemical; settings: 5 µM inhibitor
T24 construct: purchased Life Technologies (Invitrogen SelectScreen); Dyrk1A, Dyrk2 and CK2α in-house or gifts

STK22B (TSSK2) = target: T25, STK22B (TSSK2) (Homo sapiens, UniProt Q96PF2); test: Selectivity panel STK22B; format: biochemical; settings: 5 µM inhibitor
T25 construct: purchased Life Technologies (Invitrogen SelectScreen); Dyrk1A, Dyrk2 and CK2α in-house or gifts

MAP3K5 (ASK1) = target: T26, MAP3K5 (ASK1) (Homo sapiens, UniProt Q99683); test: Selectivity panel MAP3K5; format: biochemical; settings: 5 µM inhibitor
T26 construct: purchased Life Technologies (Invitrogen SelectScreen); Dyrk1A, Dyrk2 and CK2α in-house or gifts

AKT1 (PKB alpha) = target: T27, AKT1 (PKB alpha) (Homo sapiens, UniProt P31749); test: Selectivity panel AKT1; format: biochemical; settings: 5 µM inhibitor
T27 construct: purchased Life Technologies (Invitrogen SelectScreen); Dyrk1A, Dyrk2 and CK2α in-house or gifts

NEK7 = target: T28, NEK7 (Homo sapiens, UniProt Q8TDX7); test: Selectivity panel NEK7; format: biochemical; settings: 5 µM inhibitor
T28 construct: purchased Life Technologies (Invitrogen SelectScreen); Dyrk1A, Dyrk2 and CK2α in-house or gifts

JAK2 = target: T29, JAK2 (Homo sapiens, UniProt O60674); test: Selectivity panel JAK2; format: biochemical; settings: 5 µM inhibitor
T29 construct: purchased Life Technologies (Invitrogen SelectScreen); Dyrk1A, Dyrk2 and CK2α in-house or gifts

RPS6KA5 (MSK1) = target: T30, RPS6KA5 (MSK1) (Homo sapiens, UniProt O75582); test: Selectivity panel RPS6KA5; format: biochemical; settings: 5 µM inhibitor
T30 construct: purchased Life Technologies (Invitrogen SelectScreen); Dyrk1A, Dyrk2 and CK2α in-house or gifts

DYRK3 = target: T31, DYRK3 (Homo sapiens, UniProt O43781); test: Selectivity panel DYRK3; format: biochemical; settings: 5 µM inhibitor
T31 construct: purchased Life Technologies (Invitrogen SelectScreen); Dyrk1A, Dyrk2 and CK2α in-house or gifts

PRKCE (PKC epsilon) = target: T32, PRKCE (PKC epsilon) (Homo sapiens, UniProt Q02156); test: Selectivity panel PRKCE; format: biochemical; settings: 5 µM inhibitor
T32 construct: purchased Life Technologies (Invitrogen SelectScreen); Dyrk1A, Dyrk2 and CK2α in-house or gifts

PAK4 = target: T33, PAK4 (Homo sapiens, UniProt O96013); test: Selectivity panel PAK4; format: biochemical; settings: 5 µM inhibitor
T33 construct: purchased Life Technologies (Invitrogen SelectScreen); Dyrk1A, Dyrk2 and CK2α in-house or gifts

WEE1 = target: T34, WEE1 (Homo sapiens, UniProt P30291); test: Selectivity panel WEE1; format: biochemical; settings: 5 µM inhibitor
T34 construct: purchased Life Technologies (Invitrogen SelectScreen); Dyrk1A, Dyrk2 and CK2α in-house or gifts

FYN = target: T35, FYN (Homo sapiens, UniProt P06241); test: Selectivity panel FYN; format: biochemical; settings: 5 µM inhibitor
T35 construct: purchased Life Technologies (Invitrogen SelectScreen); Dyrk1A, Dyrk2 and CK2α in-house or gifts

RPS6KA1 (RSK1) = target: T36, RPS6KA1 (RSK1) (Homo sapiens, UniProt Q15418); test: Selectivity panel RPS6KA1; format: biochemical; settings: 5 µM inhibitor
T36 construct: purchased Life Technologies (Invitrogen SelectScreen); Dyrk1A, Dyrk2 and CK2α in-house or gifts
T36 sequence (Q15418 whole entry): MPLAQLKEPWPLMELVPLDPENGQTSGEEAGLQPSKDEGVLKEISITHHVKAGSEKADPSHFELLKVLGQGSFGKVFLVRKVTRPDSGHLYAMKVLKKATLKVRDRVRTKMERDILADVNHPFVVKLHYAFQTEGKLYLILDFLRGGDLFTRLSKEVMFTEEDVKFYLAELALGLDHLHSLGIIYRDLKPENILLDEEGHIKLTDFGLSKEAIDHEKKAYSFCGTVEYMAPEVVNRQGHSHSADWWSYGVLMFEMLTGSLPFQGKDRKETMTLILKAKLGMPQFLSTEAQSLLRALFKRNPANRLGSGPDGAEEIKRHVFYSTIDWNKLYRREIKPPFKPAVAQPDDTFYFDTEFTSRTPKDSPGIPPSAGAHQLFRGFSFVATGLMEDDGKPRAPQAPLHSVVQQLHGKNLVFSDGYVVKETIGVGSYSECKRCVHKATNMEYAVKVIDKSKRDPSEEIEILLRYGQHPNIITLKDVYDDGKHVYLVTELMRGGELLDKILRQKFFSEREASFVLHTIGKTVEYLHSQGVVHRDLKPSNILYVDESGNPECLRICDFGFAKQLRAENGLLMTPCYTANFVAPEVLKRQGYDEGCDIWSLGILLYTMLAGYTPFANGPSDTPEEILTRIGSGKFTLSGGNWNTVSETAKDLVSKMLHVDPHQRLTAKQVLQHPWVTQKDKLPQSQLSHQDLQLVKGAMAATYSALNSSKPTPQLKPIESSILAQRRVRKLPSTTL

T18 sequence (O43353 whole entry): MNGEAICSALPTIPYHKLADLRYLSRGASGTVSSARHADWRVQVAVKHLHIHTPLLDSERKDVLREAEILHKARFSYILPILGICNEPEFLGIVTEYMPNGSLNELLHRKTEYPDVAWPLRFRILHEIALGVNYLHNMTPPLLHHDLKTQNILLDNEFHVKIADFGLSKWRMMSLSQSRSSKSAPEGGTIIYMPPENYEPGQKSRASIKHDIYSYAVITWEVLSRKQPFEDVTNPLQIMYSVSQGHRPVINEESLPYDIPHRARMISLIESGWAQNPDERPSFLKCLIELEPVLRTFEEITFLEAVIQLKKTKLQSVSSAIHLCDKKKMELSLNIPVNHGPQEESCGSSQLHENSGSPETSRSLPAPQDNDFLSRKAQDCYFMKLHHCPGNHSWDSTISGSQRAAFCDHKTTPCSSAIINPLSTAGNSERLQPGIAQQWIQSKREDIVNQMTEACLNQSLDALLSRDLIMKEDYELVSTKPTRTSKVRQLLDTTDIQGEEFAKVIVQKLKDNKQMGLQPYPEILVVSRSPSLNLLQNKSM
T10 sequence (O14757 whole entry): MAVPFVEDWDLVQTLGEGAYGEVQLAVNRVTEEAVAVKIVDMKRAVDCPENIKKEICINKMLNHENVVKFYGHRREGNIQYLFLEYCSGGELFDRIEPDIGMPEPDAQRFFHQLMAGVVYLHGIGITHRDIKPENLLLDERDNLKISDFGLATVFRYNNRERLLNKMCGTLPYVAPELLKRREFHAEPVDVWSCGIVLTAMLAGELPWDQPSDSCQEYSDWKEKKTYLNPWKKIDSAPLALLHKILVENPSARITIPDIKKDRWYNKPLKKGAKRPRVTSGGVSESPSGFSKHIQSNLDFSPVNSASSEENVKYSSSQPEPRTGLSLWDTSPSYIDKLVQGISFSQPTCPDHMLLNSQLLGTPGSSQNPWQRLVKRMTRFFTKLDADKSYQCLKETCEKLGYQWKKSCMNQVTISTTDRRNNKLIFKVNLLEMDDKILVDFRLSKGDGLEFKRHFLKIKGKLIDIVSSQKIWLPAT
T33 sequence (O96013 whole entry): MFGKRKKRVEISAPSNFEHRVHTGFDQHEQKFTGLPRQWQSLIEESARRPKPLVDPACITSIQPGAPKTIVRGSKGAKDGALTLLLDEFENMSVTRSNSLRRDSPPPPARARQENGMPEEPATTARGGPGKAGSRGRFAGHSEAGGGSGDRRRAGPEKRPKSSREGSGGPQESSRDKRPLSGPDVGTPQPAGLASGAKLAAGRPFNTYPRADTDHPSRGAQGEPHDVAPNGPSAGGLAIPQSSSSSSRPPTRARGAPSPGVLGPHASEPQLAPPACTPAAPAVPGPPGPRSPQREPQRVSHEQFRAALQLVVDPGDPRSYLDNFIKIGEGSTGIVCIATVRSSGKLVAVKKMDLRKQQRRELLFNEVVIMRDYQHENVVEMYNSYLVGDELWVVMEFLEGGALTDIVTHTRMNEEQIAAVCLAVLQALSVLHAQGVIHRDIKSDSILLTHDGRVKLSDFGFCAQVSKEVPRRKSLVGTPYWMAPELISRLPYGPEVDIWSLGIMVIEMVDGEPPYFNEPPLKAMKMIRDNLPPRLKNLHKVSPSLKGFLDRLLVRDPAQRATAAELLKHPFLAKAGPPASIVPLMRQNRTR
T15 sequence (Q16512 whole entry): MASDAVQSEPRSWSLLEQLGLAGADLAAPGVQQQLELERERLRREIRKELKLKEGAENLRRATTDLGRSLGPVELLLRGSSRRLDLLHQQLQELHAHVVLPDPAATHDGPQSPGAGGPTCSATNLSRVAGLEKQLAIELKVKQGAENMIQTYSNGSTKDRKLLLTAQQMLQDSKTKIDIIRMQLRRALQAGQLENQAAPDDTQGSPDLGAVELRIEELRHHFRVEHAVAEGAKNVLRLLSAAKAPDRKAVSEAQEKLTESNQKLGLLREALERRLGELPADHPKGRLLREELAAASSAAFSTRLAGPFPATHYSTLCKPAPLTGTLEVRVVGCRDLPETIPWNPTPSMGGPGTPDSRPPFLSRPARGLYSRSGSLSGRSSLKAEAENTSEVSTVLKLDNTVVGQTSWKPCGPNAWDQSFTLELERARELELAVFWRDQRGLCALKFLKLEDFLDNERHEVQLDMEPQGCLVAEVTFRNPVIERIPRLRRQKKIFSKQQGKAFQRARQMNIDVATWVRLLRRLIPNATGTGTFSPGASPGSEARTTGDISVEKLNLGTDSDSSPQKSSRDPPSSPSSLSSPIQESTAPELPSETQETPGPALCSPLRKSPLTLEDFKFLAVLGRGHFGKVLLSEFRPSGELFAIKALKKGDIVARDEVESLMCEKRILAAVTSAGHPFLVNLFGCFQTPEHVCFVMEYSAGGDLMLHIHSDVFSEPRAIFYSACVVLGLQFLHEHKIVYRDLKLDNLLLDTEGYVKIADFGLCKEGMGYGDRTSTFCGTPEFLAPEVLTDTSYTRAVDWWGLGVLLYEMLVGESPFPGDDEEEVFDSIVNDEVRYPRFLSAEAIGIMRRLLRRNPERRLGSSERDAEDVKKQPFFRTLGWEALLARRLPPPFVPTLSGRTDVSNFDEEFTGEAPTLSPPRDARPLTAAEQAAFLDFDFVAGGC
T16 sequence (Q96RG2 whole entry): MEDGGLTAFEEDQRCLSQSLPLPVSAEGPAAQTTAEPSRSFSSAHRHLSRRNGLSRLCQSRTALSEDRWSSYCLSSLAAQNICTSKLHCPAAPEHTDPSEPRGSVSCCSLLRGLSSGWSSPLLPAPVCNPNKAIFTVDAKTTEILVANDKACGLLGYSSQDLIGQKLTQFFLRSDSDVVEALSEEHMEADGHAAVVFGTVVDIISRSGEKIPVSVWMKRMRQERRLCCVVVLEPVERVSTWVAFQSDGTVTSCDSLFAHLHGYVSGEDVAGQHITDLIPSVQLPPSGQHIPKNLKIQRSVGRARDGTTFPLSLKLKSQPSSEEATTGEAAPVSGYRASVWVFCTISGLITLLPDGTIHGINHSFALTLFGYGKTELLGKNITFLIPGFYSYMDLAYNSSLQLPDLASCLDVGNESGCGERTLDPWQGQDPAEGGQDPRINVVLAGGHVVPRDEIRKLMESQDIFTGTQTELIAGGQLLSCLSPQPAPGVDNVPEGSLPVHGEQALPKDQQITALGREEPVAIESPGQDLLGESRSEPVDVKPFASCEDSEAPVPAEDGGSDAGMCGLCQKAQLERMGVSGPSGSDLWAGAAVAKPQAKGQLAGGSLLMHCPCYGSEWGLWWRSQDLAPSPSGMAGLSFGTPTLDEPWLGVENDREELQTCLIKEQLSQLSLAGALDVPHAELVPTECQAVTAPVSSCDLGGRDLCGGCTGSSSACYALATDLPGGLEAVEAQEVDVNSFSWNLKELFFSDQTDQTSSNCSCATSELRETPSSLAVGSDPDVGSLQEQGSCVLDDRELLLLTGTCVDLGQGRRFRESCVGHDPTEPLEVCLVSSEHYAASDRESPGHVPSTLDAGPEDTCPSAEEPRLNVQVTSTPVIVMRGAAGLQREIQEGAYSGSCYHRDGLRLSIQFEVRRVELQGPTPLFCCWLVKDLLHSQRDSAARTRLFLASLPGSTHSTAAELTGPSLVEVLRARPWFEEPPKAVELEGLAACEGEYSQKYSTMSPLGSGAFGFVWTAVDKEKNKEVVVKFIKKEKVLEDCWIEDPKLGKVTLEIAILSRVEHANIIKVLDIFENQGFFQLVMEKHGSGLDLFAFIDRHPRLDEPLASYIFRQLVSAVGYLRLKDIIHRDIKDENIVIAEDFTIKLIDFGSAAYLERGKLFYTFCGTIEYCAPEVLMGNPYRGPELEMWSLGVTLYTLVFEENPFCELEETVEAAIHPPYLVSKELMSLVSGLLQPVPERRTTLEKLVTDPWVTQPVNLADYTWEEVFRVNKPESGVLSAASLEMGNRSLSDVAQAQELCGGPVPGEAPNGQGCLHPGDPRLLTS
T13 sequence (P28482 whole entry): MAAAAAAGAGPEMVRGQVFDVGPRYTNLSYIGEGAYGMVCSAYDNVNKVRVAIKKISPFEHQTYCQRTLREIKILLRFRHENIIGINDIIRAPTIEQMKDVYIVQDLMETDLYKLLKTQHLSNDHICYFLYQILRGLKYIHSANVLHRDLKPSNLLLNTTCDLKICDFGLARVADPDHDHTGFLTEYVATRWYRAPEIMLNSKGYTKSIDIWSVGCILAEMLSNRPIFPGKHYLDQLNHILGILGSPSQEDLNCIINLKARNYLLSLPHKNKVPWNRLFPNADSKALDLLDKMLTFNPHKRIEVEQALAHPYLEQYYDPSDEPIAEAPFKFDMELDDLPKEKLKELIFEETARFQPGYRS

Structure (SMILES)	inhibition at 5 µM (IGF1R) [%]	inhibition at 5 µM (PRKCZ (PKC zeta)) [%]	inhibition at 5 µM (PHKG2) [%]	inhibition at 5 µM (EPHB3) [%]	inhibition at 5 µM (TAOK2 (TAO1)) [%]	inhibition at 5 µM (MARK1 (MARK)) [%]	inhibition at 5 µM (ACVR1 (ALK2)) [%]	inhibition at 5 µM (AXL) [%]	inhibition at 5 µM (MAPK12 (p38 gamma, ERK3)) [%]	inhibition at 5 µM (CHEK1 (CHK1)) [%]	inhibition at 5 µM (ROCK2) [%]	inhibition at 5 µM (AURKA (Aurora A)) [%]	inhibition at 5 µM (MAPK1 (ERK2)) [%]	inhibition at 5 µM (PRKD1 (PKC mu, PKD1)) [%]	inhibition at 5 µM (PKN1 (PRK1)) [%]	inhibition at 5 µM (PASK) [%]	influence on cell viability (cellular ATP levels) [1]	inhibition at 5 µM (CDK2/cyclin A) [%]	inhibition at 5 µM (RIPK2) [%]	inhibition at 5 µM (MAPK8 (JNK1)) [%]	further results
c1cncc(-c2cc(-c3cncs3)cs2)c1 [Compound 29, 3-[4-(1,3-thiazol-5-yl)thiophen-2-yl]pyridine]	1	-23	-12	0	-6	0	51	-2	-2	3	6	5	-6	-1	-16	23	no influence on cell viability	22	53	-1	inhibition at 5 µM (DAPK3 (ZIPK)): -1%; inhibition at 5 µM (IRAK4): -7%; inhibition at 5 µM (PIK3CA/PIK3R1): 21%; inhibition at 5 µM (EPHA5): -9%; inhibition at 5 µM (RET): -1%; inhibition at 5 µM (STK22B (TSSK2)): -2%; inhibition at 5 µM (MAP3K5 (ASK1)): 4%; inhibition at 5 µM (AKT1 (PKB alpha)): 9%; inhibition at 5 µM (NEK7): 0%; inhibition at 5 µM (JAK2): -2%; inhibition at 5 µM (RPS6KA5 (MSK1)): 15%; inhibition at 5 µM (DYRK3): 66%; inhibition at 5 µM (PRKCE (PKC epsilon)): -18%; inhibition at 5 µM (PAK4): 3%; inhibition at 5 µM (WEE1): 17%; inhibition at 5 µM (FYN): -2%; inhibition at 5 µM (RPS6KA1 (RSK1)): 2%
c1cncc(-c2csc(-c3cncs3)c2)c1 [Compound 48, 3-[5-(1,3-thiazol-5-yl)thiophen-3-yl]pyridine]	3	-25	-11	1	-6	1	51	-11	3	7	9	2	1	-5	-10	27	no influence on cell viability	33	46	5	inhibition at 5 µM (DAPK3 (ZIPK)): -5%; inhibition at 5 µM (IRAK4): -11%; inhibition at 5 µM (PIK3CA/PIK3R1): 12%; inhibition at 5 µM (EPHA5): -6%; inhibition at 5 µM (RET): 1%; inhibition at 5 µM (STK22B (TSSK2)): -2%; inhibition at 5 µM (MAP3K5 (ASK1)): 6%; inhibition at 5 µM (AKT1 (PKB alpha)): 3%; inhibition at 5 µM (NEK7): -7%; inhibition at 5 µM (JAK2): -4%; inhibition at 5 µM (RPS6KA5 (MSK1)): 10%; inhibition at 5 µM (DYRK3): 69%; inhibition at 5 µM (PRKCE (PKC epsilon)): -5%; inhibition at 5 µM (PAK4): 4%; inhibition at 5 µM (WEE1): 10%; inhibition at 5 µM (FYN): 0%; inhibition at 5 µM (RPS6KA1 (RSK1)): 4%

Source: PMC3968014, “Design and Synthesis of a Library of Lead-Like 2,4-Bisheterocyclic Substituted Thiophenes as Selective Dyrk/Clk Inhibitors” (PLoS ONE, 2014)
